Counter-ions that a name gives are not always drawn.
The compounds below were run on NQO1 specific enzyme activity in BEAS-2B cells (assay: BEAS-2B NQO1 MTT assay). Settings: BEAS-2B cells, 48 hours with compound, MTT readout; read-out: EC50 of NQO1 specific activity induction.
Assay type: cell-based
From the text: NAD(P)H:quinone oxidoreductase 1 (NQO1), also called DT diaphorase, is a homodimeric FAD-containing enzyme that catalyzes obligatory NAD(P)H-dependent two-electron reductions of quinones and protects cells against the toxic and neoplastic effects of free radicals and reactive oxygen species arising from one-electron reductions. The transcription of NQO1 is finely regulated by NRF2, and thus NQO1 activity is a good marker for NRF2 activation. On day one, frozen BEAS-2B cells (ATCC) are thawed in a water bath, counted, and re-suspended at a concentration of 250,000 cells/mL. Fifty microliters of cells are plated in 384 well black clear-bottomed plates. Plates are incubated at 37° C., 5% CO2 overnight. On day two, plates are centrifuged and 50 nL of compound or controls are added to the cells. Plates are then incubated at 37° C., 5% CO2 for 48 hours. On day four, medium is aspirated from the plate and crude cell lysates are made by adding 13 uL of 1× Cell Signaling Technologies lysis buffer with 1 Complete, Mini, EDTA-free Protease Inhibitor Tablet (Roche) for each 10 mL of lysis buffer. After lysis plates are incubated for 20 minutes at room temperature. Two microliters of lysate are removed for use in Cell Titer Glo assay (Promega) and MTT cocktail is prepared (Prochaska et. al. 1998) for measurement of NQO1 activity. Fifty microliters of MTT cocktail is added to each well, plate is centrifuged, and analyzed on an Envision plate reader (Perkin Elmer) using Absorbance 570 nm label for 30 minutes. Product formation is measured kinetically and the EC50 of NQO1 specific activity induction is calculated by plotting the change in absorbance (Delta OD/min) versus the log of compound concentration followed by 3-parameter fitting.

| Compound | EC50 |
| --- | --- |
| CC[C@@H]1CN(Cc2cc(C(CCc3cn(CC)nn3)C(C)(C)C(=O)O)ccc2C)Cc2ncccc2O1 (single isomer, unassigned) [Example 251] | 1 to 10 nM |
| CCC1CCN(Cc2nccn2Cc2cc(C(CCc3cn(CC)nn3)C(C)C(=O)O)ccc2C)CC1 (single isomer, unassigned) [Example 226, 5-(1-Ethyl-1H-1,2,3-triazol-4-yl)-3-(3-((2-((4-ethylpiperidin-1-yl)methyl)-1H-imidazol-1-yl)methyl)-4-methylphenyl)-2-methylpentanoic acid, Trifluoroacetic Acid Salt] | 10 to 100 nM |
| CCC1CCN(Cc2nccn2Cc2cc(C(CCc3cn(CC)nn3)C(C)(C)C(=O)O)ccc2C)CC1 (single isomer, unassigned) [Example 249, 5-(1-ethyl-1H-1,2,3-triazol-4-yl)-3-(3-((2-((4-ethylpiperidin-1-yl)methyl)-1H-imidazol-1-yl)methyl)-4-methylphenyl)-2,2-dimethylpentanoic Acid] | 1 to 10 nM |

Same assay, conditions: Homo sapiens, BEAS-2B, 48 h, BEAS-2B cells, 48 hours with compound, MTT readout; read-out: EC50 of NQO1 specific activity induction

| Compound | EC50 |
| --- | --- |
| Cc1ccc(C(c2ccc3c(nnn3C)c2C)C(C)(C)C(=O)O)cc1CN1CCCC(n2cccn2)C1 (stereo not shown) [Example 162, 3-(3-((3-(1H-Pyrazol-1-yl)piperidin-1-yl)methyl)-4-methylphenyl)-3-(1,4-dimethyl-1H-benzo[d][1,2,3]triazol-5-yl)-2,2-dimethylpropanoic Acid] | 100 to 1000 nM |
| CC[C@@H]1CN(Cc2cc([C@@H](c3ccc4c(nnn4C)c3C)C(C)(C)C(=O)NS(C)(=O)=O)ccc2C)Cc2cnccc2O1 [Example 205, (S)-3-(1,4-Dimethyl-1H-benzo[d][1,2,3]triazol-5-yl)-3-(3-(((R)-2-ethyl-2,3-dihydropyrido[3,4-f][1,4]oxazepin-4(5H)-yl)methyl)-4-methylphenyl)-2,2-dimethyl-N-(methylsulfonyl)propanamide, Trifluoroacetic Acid Salt] | 100 to 1000 nM |
| Cc1ccc([C@@H](c2ccc3c(nnn3C)c2C)C(C)(C)C(=O)O)cc1Cn1ccnc1CN1CCCCCC1 [Example 126, (S)-3-(3-((2-(Azepan-1-ylmethyl)-1H-imidazol-1-yl)methyl)-4-methylphenyl)-3-(1,4-dimethyl-1H-benzo[d][1,2,3]triazol-5-yl)-2,2-dimethylpropanoate, Sodium salt] | 1 to 10 nM |
| CCC1CN(Cc2cc(C(CCc3cn(CC)nn3)CC(=O)O)ccc2C)Cc2ccccc2O1 (stereo not shown) [Example 4, 5-(1-Ethyl-1H-1,2,3-triazol-4-yl)-3-(3-((2-ethyl-2,3-dihydrobenzo[f][1,4]oxazepin-4(5H)-yl)methyl)-4-methylphenyl)pentanoic Acid, Trifluoroacetic Acid Salt] | 1000 to 10000 nM |
| CCC1CN(Cc2cc([C@H](c3ccc4c(nnn4C)c3C)C(C)C(=O)O)ccc2C)Cc2ccccc2O1 (stereo partly drawn) [Example 102, (3R)-3-(1,4-dimethyl-1H-benzo[d][1,2,3]triazol-5-yl)-3-(3-((2-ethyl-2,3-dihydrobenzo[f][1,4]oxazepin-4(5H)-yl)methyl)-4-methylphenyl)-2-methylpropanoic Acid] | < 1 nM |
| CCC1CN(Cc2cc(C(CC(=O)O)c3ccc4c(nnn4CC)c3C)ccc2C)Cc2ccccc2O1 (stereo not shown) [Example 69, 3-(3-((2-Ethyl-2,3-dihydrobenzo[f][1,4]oxazepin-4(5H)-yl)methyl)-4-methylphenyl)-3-(1-ethyl-4-methyl-1H-benzo[d][1,2,3]triazol-5-yl)propanoic Acid, Formic Acid Salt] | 10 to 100 nM |
| Cc1ccc(C(c2ccc3c(nnn3C)c2C)C(C)(C)C(=O)O)cc1Cn1ccnc1CC1CCOCC1 (stereo not shown) [Example 145, 3-(1,4-Dimethyl-1H-benzo[d][1,2,3]triazol-5-yl)-2,2-dimethyl-3-(4-methyl-3-((2-((tetrahydro-2H-pyran-4-yl)methyl)-1H-imidazol-1-yl)methyl)phenyl) propanoic acid, trifluoroacetic acid salt] | 100 to 1000 nM |
| Cc1ccc([C@H](c2ccc3c(nnn3C)c2C)C(C)(C)C(=O)O)cc1Cn1ccnc1CC1CCCCCC1 [Example 125, (R)-3-(3-((2-(Cycloheptylmethyl)-1H-imidazol-1-yl)methyl)-4-methylphenyl)-3-(1,4-dimethyl-1H-benzo[d][1,2,3]triazol-5-yl)-2,2-dimethylpropanoate, Sodium salt] | 100 to 1000 nM |
| Cc1ccc(C(CCc2cn(C)nn2)CC(=O)O)cc1Cn1ccnc1CC1CCCCC1 (stereo not shown) [Example 130, 3-(3-((2-(Cyclohexylmethyl)-1H-imidazol-1-yl)methyl)-4-methylphenyl)-5-(1-methyl-1H-1,2,3-triazol-4-yl)pentanoic Acid] | 100 to 1000 nM |
| Cc1ccc(C(CC(=O)O)c2ccc3c(nnn3C)c2C)cc1CN1Cc2ccc(Br)cc2O[C@@H](C)C1 (stereo partly drawn) [Example 93, 3-(3-(((S)-8-bromo-2-methyl-2,3-dihydrobenzo[f][1,4]oxazepin-4(5H)-yl)methyl)-4-methylphenyl)-3-(1,4-dimethyl-1H-benzo[d][1,2,3]triazol-5-yl)propanoic Acid, Formic Acid Salt] | 1 to 10 nM |
| CC[C@@H]1CN(Cc2cc([C@H](CC(=O)O)c3ccc4c(nnn4C)c3C)ccc2C)Cc2ccncc2O1 [Example 259, (S)-3-(1,4-dimethyl-1H-benzo[d][1,2,3]triazol-5-yl)-3-(3-(((R)-2-ethyl-2,3-dihydropyrido[4,3-f][1,4]oxazepin-4(5H)-yl)methyl)-4-methylphenyl)propanoic acid] | 100 to 1000 nM |
| CCn1nnc2c(Cl)c([C@H](CC(=O)O)c3ccc(C)c(CN4Cc5ccccc5OC(C)(C)C4)c3)ccc21 [Example 55, (R)-3-(4-Chloro-1-ethyl-1H-benzo[d][1,2,3]triazol-5-yl)-3-(3-((2,2-dimethyl-2,3-dihydrobenzo[f][1,4]oxazepin-4(5H)-yl)methyl)-4-methylphenyl)propanoate, Sodium salt] | 10 to 100 nM |
| CC[C@@H]1CN(Cc2cc(C(CCc3cn(CC)nn3)CC(=O)O)ccc2Cl)Cc2ncccc2O1 (stereo partly drawn) [Example 231, 3-(4-Chloro-3-(((R)-2-ethyl-2,3-dihydropyrido[2,3-f][1,4]oxazepin-4(5H)-yl)methyl)phenyl)-5-(1-ethyl-1H-1,2,3-triazol-4-yl)pentanoic Acid] | 100 to 1000 nM |
| CC[C@@H]1CN(Cc2cc(C(CC(=O)O)c3ncc4c(nnn4C)c3C)ccc2C)Cc2ccccc2O1 (stereo partly drawn) [Example 48, 3-(3,7-Dimethyl-3H-[1,2,3]triazolo[4,5-c]pyridin-6-yl)-3-(3-(((R)-2-ethyl-2,3-dihydrobenzo[f][1,4]oxazepin-4(5H)-yl)methyl)-4-methylphenyl)propanoic Acid, Trifluoroacetic Acid Salt] | 100 to 1000 nM |
| Cc1ccc2c(c1)OC(C)(C)CN(Cc1cc([C@H](CC(=O)O)c3ccc4c(nnn4C)c3C)ccc1C)C2 [Example 180, (S)-3-(1,4-Dimethyl-1H-benzo[d][1,2,3]triazol-5-yl)-3-(4-methyl-3-((2,2,8-trimethyl-2,3-dihydrobenzo[f][1,4]oxazepin-4(5H)-yl)methyl)phenyl) propanoic acid] | 10 to 100 nM |
| Cc1ccc(C(CC(=O)O)c2ccc3c(nnn3C)c2C)cc1CN1Cc2ccccc2OC2(CC2)C1 (stereo not shown) [Example 243, 3-(3-((3H-Spiro[benzo[f][1,4]oxazepine-2,1′-cyclopropan]-4(5H)-yl)methyl)-4-methylphenyl)-3-(1,4-dimethyl-1H-benzo[d][1,2,3]triazol-5-yl)propanoic Acid] | 100 to 1000 nM |

Source: patent US10604509B2, “Nrf2 regulators” (GlaxoSmithKline Intellectual Property Development Limited, priority 2015, dated 2020)
